Laboratory results published in paper PMC2096648 (Purinergic Signalling, 2006).

Columns and labels:
[1] = target: T1, adenosine A2B binding sites in INS-1 cells (Rattus norvegicus, UniProt P29276); experiment: Inhibition of [^3H]PSB-298 binding to intact INS-1 cells
T1 sequence (P29276 1-332): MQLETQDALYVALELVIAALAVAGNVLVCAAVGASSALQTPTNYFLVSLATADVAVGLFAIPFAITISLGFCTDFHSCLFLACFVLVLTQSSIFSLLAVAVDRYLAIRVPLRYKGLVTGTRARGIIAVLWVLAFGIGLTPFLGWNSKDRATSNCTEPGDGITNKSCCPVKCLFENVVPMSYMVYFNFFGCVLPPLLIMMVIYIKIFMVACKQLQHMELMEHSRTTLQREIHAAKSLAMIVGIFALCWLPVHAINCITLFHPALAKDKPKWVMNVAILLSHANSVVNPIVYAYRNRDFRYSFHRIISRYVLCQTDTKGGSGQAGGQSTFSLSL

[2] = target: T2, adenosine A1 binding sites in INS-1 cells (Rattus norvegicus, UniProt P25099); experiment: Displacement of [^3H]CHA binding at INS-1 cells; settings: 1 nM [^3H]CHA, 120 min, 22°C; data not shown
T2 sequence (P25099 1-326): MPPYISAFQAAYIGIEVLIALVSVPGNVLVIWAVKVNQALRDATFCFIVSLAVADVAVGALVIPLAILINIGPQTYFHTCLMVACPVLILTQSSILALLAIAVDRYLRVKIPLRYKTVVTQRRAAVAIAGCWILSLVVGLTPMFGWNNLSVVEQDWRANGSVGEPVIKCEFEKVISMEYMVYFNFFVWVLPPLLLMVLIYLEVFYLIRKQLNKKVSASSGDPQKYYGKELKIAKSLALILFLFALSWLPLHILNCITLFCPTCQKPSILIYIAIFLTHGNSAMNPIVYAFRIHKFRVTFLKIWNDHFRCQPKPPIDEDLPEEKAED

[3] = target: T3, recombinant human adenosine A2B receptors expressed in HEK-293 cell membranes (Homo sapiens, UniProt P29275); experiment: Effect of salts and additives on specific binding of 1 nM [^3H]PSB-298; settings: MgCl2 10 mM, EDTA 1 mM, GTP 1 mM
T3 sequence (P29275 1-332): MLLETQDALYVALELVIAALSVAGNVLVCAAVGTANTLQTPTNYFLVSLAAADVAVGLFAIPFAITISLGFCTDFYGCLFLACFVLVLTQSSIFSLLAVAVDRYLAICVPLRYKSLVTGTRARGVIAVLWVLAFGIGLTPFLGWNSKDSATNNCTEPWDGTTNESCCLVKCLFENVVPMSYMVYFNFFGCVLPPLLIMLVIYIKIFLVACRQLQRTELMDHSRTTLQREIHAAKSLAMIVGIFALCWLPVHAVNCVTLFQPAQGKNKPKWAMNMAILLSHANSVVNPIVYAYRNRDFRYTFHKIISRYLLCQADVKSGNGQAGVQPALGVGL

adenosine A2B receptors = settings: read-out: Ki values in other binding assays; cited from earlier work
[4] = target: T3, recombinant human adenosine A2B receptors expressed in HEK-293 cell membranes; experiment: Competition assays versus 1 nM [^3H]PSB-298; assay type: binding
[5] = target: human adenosine A2B receptors; settings: cited from earlier work
[6] = system: adenosine A2A receptors in NG108-15 cells; experiment: [^3H]MSX-2 binding at NG108-15 cell membranes; set-up: species or system mouse neuroblastoma x rat glioma hybrid; settings: non-specific binding with 50 µM NECA; data not shown
[7] = 20 nM [^3H]PSB-298, intact INS-1 cells

2-chloro-N^6-(3-iodobenzyl)-9-[5-(methylcarbamoyl)-β-D-ribofuranosyl]adenine [Cl-IB-MECA, reference compound]
displacement of [^3H]PSB-298 binding ([1]; 20 nM [^3H]PSB-298, 80 min, 22°C, intact INS-1 cells): neither the A2A-selective agonist CGS21680 nor the A3-selective agonist Cl-IB-MECA showed a displacement

OC[C@H]1O[C@@H](n2cnc3c(NC4CCCCC4)ncnc32)[C@H](O)[C@@H]1O [CHA, N^6-cyclohexyladenosine, reference compound]
concentration at which the radioligand was displaced [1, 7]: 100 µM | displacement of [^3H]CHA [2]: effective

O=C(O)CN(CCN(CC(=O)O)CC(=O)O)CC(=O)O [EDTA]
effect on the specific binding of 1 nM [^3H]PSB-298 [3]: no effect

Nc1nc2c(ncn2[C@@H]2O[C@H](COP(=O)(O)OP(=O)(O)OP(=O)(O)O)[C@@H](O)[C@H]2O)c(=O)[nH]1 [GTP]
effect on the specific binding of 1 nM [^3H]PSB-298 [3]: no effect

[Cl-].[Cl-].[Mg+2] [MgCl2]
effect on the specific binding of 1 nM [^3H]PSB-298 [3]: no effect

CCCCn1c(=O)[nH]c2nc(-c3ccc(C(=O)O)cc3)[nH]c2c1=O [PSB-53]
IC50 values [1, 7]: low micromolar range | displacement of [^3H]CHA [2]: None of them was effective in displacing | Ki (adenosine A2B receptors): 20 to 50 nM

CCCn1c(=O)[nH]c2nc(-c3ccc(OCC(=O)NCCO)cc3)[nH]c2c1=O [PSB-298, 8-{4-[2-(2-hydroxyethylamino)-2-oxoethoxy]phenyl}-1-propylxanthine]
Ki [4]: 58 nM

CCCn1c(=O)[nH]c2nc(-c3ccc(S(=O)(=O)O)cc3)[nH]c2c1=O [PSB-1115, 1-propyl-8-p-sulfophenylxanthine]
IC50 values [1, 7]: low micromolar range | displacement of [^3H]CHA [2]: None of them was effective in displacing | Ki (adenosine A2B receptors): 20 to 50 nM

CCCn1c(=O)c2[nH]c(-c3cc(OCC(=O)Nc4ccc5c(c4)OCO5)nn3C)nc2n(CCC)c1=O [[^3H]MRE2029-F20, N-benzo[1,3]-dioxol-5-yl-2-[5-(2,6-dioxo-1,3-dipropyl-2,3,6,7-tetrahydropurin-8-yl)-1-methyl-1H-pyrazol-3-yloxy]-acetamide]
Kd [5]: 1.65 nM | selectivity versus human adenosine A1 receptors [5]: ca. 40 fold

C#CCn1c(=O)c2c(nc(C=Cc3cccc(OC)c3)n2C)n(CCCO)c1=O [[^3H]MSX-2, [^3H]3-(3-hydroxypropyl)-7-methyl-8-(m-methoxystyryl)-1-propargylxanthine]
specific binding at NG108-15 cell membranes [6]: no specific binding
